IC50 data for twelve molecules are collected here from US20100256104A1, “NOVEL AMIDE COMPOUNDS” (ASTRAZENECA R&D, priority 2009, published 2010).

The test addresses T1, recombinant human GR (Homo sapiens, UniProt P04150).
T1 construct: purchased Panvera/Invitrogen P2812 (kit P2893)
T1 sequence (P04150 1-777): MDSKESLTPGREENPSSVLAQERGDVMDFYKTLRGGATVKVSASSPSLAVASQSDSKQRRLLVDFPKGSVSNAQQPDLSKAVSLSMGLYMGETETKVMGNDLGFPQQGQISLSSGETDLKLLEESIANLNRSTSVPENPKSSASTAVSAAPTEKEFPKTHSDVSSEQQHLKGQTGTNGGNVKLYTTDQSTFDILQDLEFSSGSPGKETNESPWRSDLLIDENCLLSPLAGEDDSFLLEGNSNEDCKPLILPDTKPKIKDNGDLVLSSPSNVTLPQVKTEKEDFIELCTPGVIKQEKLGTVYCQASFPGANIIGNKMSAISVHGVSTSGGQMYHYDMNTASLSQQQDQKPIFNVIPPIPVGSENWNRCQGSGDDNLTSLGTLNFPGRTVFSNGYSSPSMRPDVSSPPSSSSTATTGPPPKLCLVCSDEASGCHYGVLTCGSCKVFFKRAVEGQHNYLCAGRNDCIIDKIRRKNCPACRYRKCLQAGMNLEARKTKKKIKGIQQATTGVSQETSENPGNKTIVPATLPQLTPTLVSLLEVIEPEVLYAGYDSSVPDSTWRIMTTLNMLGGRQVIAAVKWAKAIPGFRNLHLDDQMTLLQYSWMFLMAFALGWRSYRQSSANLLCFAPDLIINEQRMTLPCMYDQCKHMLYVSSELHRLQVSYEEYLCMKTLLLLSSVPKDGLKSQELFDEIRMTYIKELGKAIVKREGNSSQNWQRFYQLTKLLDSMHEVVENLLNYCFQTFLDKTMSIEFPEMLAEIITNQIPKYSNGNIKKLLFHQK
As to the kind of experiment: Human Glucocorticoid Receptor (GR) Assay, fluorescence polarization competition with GS Red tracer. Particulars: 2 hours at room temperature, 100% control 10 μM Dexamethasone, XLfit model 205, read-out: Inhibition of GR binding, IC50. The protocol: Human Glucocorticoid Receptor (GR) Assay The assay is based on a commercial kit from Panvera/Invitrogen (Part number P2893). The assay technology is fluorescence polarization. The kit utilises recombinant human GR (Panvera, Part number P2812), a Fluoromone™ labelled tracer (GS Red, Panvera, Part number P2894) and a Stabilizing Peptide 10X (Panvera, Part number P2815). The GR and Stabilizing Peptide reagents are stored at −70° C. while the GS Red is stored at −20° C. Also included in the kit are 1M DTT (Panvera, Part number P2325, stored at −20° C.) and GR Screening buffer 10X (Panvera, Part number P2814, stored at −70° C. initially but once thawed stored at room temperature). Avoid repeated freeze/thaws for all reagents. The GR Screening buffer 10X comprises 100 mM potassium phosphate, 200 mM sodium molybdate, 1 mM EDTA and 20% DMSO. Test compounds (1 μL) and controls (1 μL) in 100% DMSO were added to black polystyrene 384-well plates (Greiner low volume black flat-bottom, part number 784076). 0% control was 100% DMSO and 100% control was 10 μM Dexamethasone. Background solution (8 μL; assay buffer 10X, Stabilizing Peptide, DTT and ice cold MQ water) was added to the background wells. GS Red solution (7 μL; assay buffer 10X, Stabilizing Peptide, DTT, GS Red and ice cold water) was added to all wells except background wells. GR solution (7 μL; assay buffer 10X, Stabilizing Peptide, DTT, GR and ice cold water) was added to all wells. The plate was sealed and incubated in a dark at room temperature for 2 hours. The plate was read in an Analyst plate reader (LJL Biosystems/Molecular Devices Corporation) or other similar plate reader capable of recording fluorescence polarization (excitation wavelength 530 nm, emission wavelength 590 nm and a dichroic mirror at 561 nm).
(Polarisation of emitted light reports the rotation of a fluorescent probe.)

Regarding `CCC(=O)O[C@]1(C(=O)SCC#N)CC[C@H]2[C@@H]3CCC4=Cc5c(cnn5-c5cccc(C(=O)NCCOC)c5)C[C@]4(C)[C@H]3[C@@H](O)C[C@@]21C` [Example 1, (1R,3aS,3bS,10aR,10bS,11S,12aS)-1-{[(Cyanomethyl)sulfanyl]carbonyl}-11-hydroxy-7-{3-[(2-methoxyethyl)carbamoyl]phenyl}-10a,12a-dimethyl-1,2,3,3a,3b,4,5,7,10,10a,10b,11,12,12a-tetradecahydrocyclopenta[5,6]naphtho[1,2-f]indazol-1-yl propanoate], the half-inhibitory concentration (IC50) was determined as 1 nM.

Turning to `CCC(=O)O[C@]1(C(=O)SCF)CC[C@H]2[C@@H]3CCC4=Cc5c(cnn5-c5cccc(C(=O)NCCOC)c5)C[C@]4(C)[C@H]3[C@@H](O)C[C@@]21C` [Example 2, (1R,3aS,3bS,10aR,10bS,11S,12aS)-1-{[(Fluoromethyl)sulfanyl]carbonyl}-11-hydroxy-7-{3-[(2-methoxyethyl)carbamoyl]phenyl}-10a,12a-dimethyl-1,2,3,3a,3b,4,5,7,10,10a,10b,11,12,12a-tetradecahydrocyclopenta[5,6]naphtho[1,2-f]indazol-1-yl propanoate], the half-inhibitory concentration (IC50) was 0.81 nM.

As for `COCCNC(=O)c1cccc(-n2ncc3c2C=C2CC[C@@H]4[C@H]([C@@H](O)C[C@@]5(C)[C@H]4CC[C@]5(OC(=O)COC)C(=O)SCF)[C@@]2(C)C3)c1` [Example 3, (1R,3aS,3bS,10aR,10bS,11S,12aS)-1-{[(Fluoromethyl)sulfanyl]carbonyl}-11-hydroxy-7-{3-[(2-methoxyethyl)carbamoyl]phenyl}-10a,12a-dimethyl-1,2,3,3a,3b,4,5,7,10,10a,10b,11,12,12a-tetradecahydrocyclopenta[5,6]naphtho[1,2-f]indazol-1-yl methoxyacetate], the IC50 stood at 1.6 nM.

As to `COCCNC(=O)c1cccc(-n2ncc3c2C=C2CC[C@@H]4[C@H]([C@@H](O)C[C@@]5(C)[C@H]4CC[C@]5(OC(=O)C4CC4)C(=O)SCC#N)[C@@]2(C)C3)c1` [Example 4, (1R,3aS,3bS,10aR,10bS,11S,12aS)-1-{[(Cyanomethyl)sulfanyl]carbonyl}-11-hydroxy-7-{3-[(2-methoxyethyl)carbamoyl]phenyl}-10a,12a-dimethyl-1,2,3,3a,3b,4,5,7,10,10a,10b,11,12,12a-tetradecahydrocyclopenta[5,6]naphtho[1,2-f]indazol-1-yl cyclopropanecarboxylate], the IC50 came to 0.91 nM.

As for `COCCNC(=O)c1cccc(-n2ncc3c2C=C2CC[C@@H]4[C@H]([C@@H](O)C[C@@]5(C)[C@H]4CC[C@]5(OC(=O)C4CC4)C(=O)SCF)[C@@]2(C)C3)c1` [Example 5, (1R,3aS,3bS,10aR,10bS,11S,12aS)-1-{[(Fluoromethyl)sulfanyl]carbonyl}-11-hydroxy-7-{3-[(2-methoxyethyl)carbamoyl]phenyl}-10a,12a-dimethyl-1,2,3,3a,3b,4,5,7,10,10a,10b,11,12,12a-tetradecahydrocyclopenta[5,6]naphtho[1,2-f]indazol-1-yl cyclopropanecarboxylate], the IC50 is 0.98 nM.

Consider `CCC(=O)O[C@]1(C(=O)SCC#N)CC[C@H]2[C@@H]3CCC4=Cc5c(cnn5-c5cccc(C(=O)NCCSC)c5)C[C@]4(C)[C@H]3[C@@H](O)C[C@@]21C` [Example 6, (1R,3aS,3bS,10aR,10bS,11S,12aS)-1-{[(Cyanomethyl)sulfanyl]carbonyl}-11-hydroxy-10a,12a-dimethyl-7-(3-{[2-(methylsulfanyl)ethyl]carbamoyl}phenyl)-1,2,3,3a,3b,4,5,7,10,10a,10b,11,12,12a-tetradecahydrocyclopenta[5,6]naphtho[1,2-f]indazol-1-yl propanoate], for which the concentration for half-maximal inhibition (IC50) came out at 1.7 nM.

For `CCC(=O)O[C@]1(C(=O)SCF)CC[C@H]2[C@@H]3CCC4=Cc5c(cnn5-c5cccc(C(=O)NCCSC)c5)C[C@]4(C)[C@H]3[C@@H](O)C[C@@]21C` [Example 7, (1R,3aS,3bS,10aR,10bS,11S,12aS)-1-{[(Fluoromethyl)sulfanyl]carbonyl}-11-hydroxy-10a,12a-dimethyl-7-(3-{[2-(methylsulfanyl)ethyl]carbamoyl}phenyl)-1,2,3,3a,3b,4,5,7,10,10a,10b,11,12,12a-tetradecahydrocyclopenta[5,6]naphtho[1,2-f]indazol-1-yl propanoate], the IC50 worked out at 1.4 nM.

In the case of `COCC(=O)O[C@]1(C(=O)SCF)CC[C@H]2[C@@H]3CCC4=Cc5c(cnn5-c5cccc(C(=O)NCCSC)c5)C[C@]4(C)[C@H]3[C@@H](O)C[C@@]21C` [Example 8, (1R,3aS,3bS,10aR,10bS,11S,12aS)-1-{[(Fluoromethyl)sulfanyl]carbonyl}-11-hydroxy-10a,12a-dimethyl-7-(3-{[2-(methylsulfanyl)ethyl]carbamoyl}phenyl)-1,2,3,3a,3b,4,5,7,10,10a,10b,11,12,12a-tetradecahydrocyclopenta[5,6]naphtho[1,2-f]indazol-1-yl methoxyacetate], the half-inhibitory concentration (IC50) was determined as 1.8 nM.

For the molecule `CSCCNC(=O)c1cccc(-n2ncc3c2C=C2CC[C@@H]4[C@H]([C@@H](O)C[C@@]5(C)[C@H]4CC[C@]5(OC(=O)C4CC4)C(=O)SCC#N)[C@@]2(C)C3)c1` [Example 9, (1R,3aS,3bS,10aR,10bS,11S,12aS)-1-{[(Cyanomethyl)sulfanyl]carbonyl}-11-hydroxy-10a,12a-dimethyl-7-(3-{[2-(methylsulfanyl)ethyl]carbamoyl}phenyl)-1,2,3,3a,3b,4,5,7,10,10a,10b,11,12,12a-tetradecahydrocyclopenta[5,6]naphtho[1,2-f]indazol-1-yl cyclopropanecarboxylate], the concentration for half-maximal inhibition (IC50) worked out at 0.91 nM.

As for `CSCCNC(=O)c1cccc(-n2ncc3c2C=C2CC[C@@H]4[C@H]([C@@H](O)C[C@@]5(C)[C@H]4CC[C@]5(OC(=O)C4CC4)C(=O)SCF)[C@@]2(C)C3)c1` [Example 10, (1R,3aS,3bS,10aR,10bS,11S,12aS)-1-{[(Fluoromethyl)sulfanyl]carbonyl}-11-hydroxy-10a,12a-dimethyl-7-(3-{[2-(methylsulfanyl)ethyl]carbamoyl}phenyl)-1,2,3,3a,3b,4,5,7,10,10a,10b,11,12,12a-tetradecahydrocyclopenta[5,6]naphtho[1,2-f]indazol-1-yl cyclopropanecarboxylate], the 50% inhibitory concentration (IC50) came out at 1.5 nM.

For the molecule `CCC(=O)O[C@]1(C(=O)SCC#N)CC[C@H]2[C@@H]3CCC4=Cc5c(cnn5-c5cccc(C(=O)NCC(N)=O)c5)C[C@]4(C)[C@H]3[C@@H](O)C[C@@]21C` [Example 11, (1R,3aS,3bS,10aR,10bS,11S,12aS)-7-{3-[(2-Amino-2-oxoethyl)carbamoyl]phenyl}-1-{[(cyanomethyl)sulfanyl]carbonyl}-11-hydroxy-10a,12a-dimethyl-1,2,3,3a,3b,4,5,7,10,10a,10b,11,12,12a-tetradecahydrocyclopenta[5,6]naphtho[1,2-f]indazol-1-yl propanoate], the IC50 was 3.7 nM.

For `CCC(=O)O[C@]1(C(=O)SCC#N)CC[C@H]2[C@@H]3CCC4=Cc5c(cnn5-c5cccc(C(=O)NC6CCS(=O)(=O)C6)c5)C[C@]4(C)[C@H]3[C@@H](O)C[C@@]21C` (stereo partly drawn) [Example 12, (1R,3aS,3bS,10aR,10bS,11S,12aS)-1-{[(Cyanomethyl)sulfanyl]carbonyl}-7-{3-[(1,1-dioxidotetrahydrothiophen-3-yl)carbamoyl]phenyl}-11-hydroxy-10a,12a-dimethyl-1,2,3,3a,3b,4,5,7,10,10a,10b,11,12,12a-tetradecahydrocyclopenta[5,6]naphtho[1,2-f]indazol-1-yl propanoate], the 50% inhibitory concentration (IC50) is 4.3 nM.

For orientation: IC50 means the concentration needed to halve the response being measured.
